Our source for the GI50 and TGI values is PubChem BioAssay (NCI).

SMILES strings stand for the structures.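 Cultured in 96-well plates, cells were exposed to test compound for 48 hours across five concentrations. GI50 = concentration required for 50% inhibition of growth. The concentration for full growth arrest is given as TGI.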 Some results are limits rather than exact numbers.

Common to all, as to assay: NCI anticancer screen, dose series, 48 h
The test system of experiment [1] is NCI-H226 lung.
The test system of experiment [2] is SNB-75 CNS.
Experiment [3] relates to T-47D breast.
For experiment [4], the system named is SF-268 CNS.
Experiment [5] has as its system CAKI-1 renal.
Experiment [6] concerns ACHN renal.
For experiment [7], the system named is SN12C renal.
The subject of experiment [8] is RXF 393 renal.
Experiment [9] has as its system HCC-2998 colon.
The subject of experiment [10] is MCF7 breast.

Consider `CCN(CC)CCCC(C)Nc1c2ccc(Cl)cc2nc2cc(OC)c(OC)cc12` (stereo not given), for which the GI50 in experiment [1] is 1.47 µM; in experiment [2] it was 1.31 µM; in experiment [3], 7.36 µM; in experiment [4] it was 1.93 µM; in experiment [5] it was 2.01 µM; in [6], 1.18 µM. Further, the GI50 in [7] was 3.31 µM; in experiment [8], 1.3 µM; in experiment [9], 1.49 µM; in experiment [10], 0.656 µM. Besides, the TGI came to 5.39 µM in experiment [1]; 2.6 µM in experiment [2]; 32.5 µM in experiment [3]; 7.03 µM in experiment [4]; 5.78 µM in [5]; 2.97 µM in experiment [6]. For the same compound, the TGI in [7] came out at 17.8 µM; in experiment [8] it was 2.67 µM; in experiment [9], 3 µM; in experiment [10], 2.9 µM.

Consider `Cc1cccc(Cl)c1NC(=O)c1cnc(Nc2cc(N3CCOCC3)cc(N3CCOCC3)c2)s1`, for which the GI50 in [1] was 0.601 µM; in [2] it was 0.00147 µM; in [3] it was 0.0368 µM; in experiment [4] it was 0.0626 µM; in experiment [5], 0.00467 µM; in [6] it was 0.00887 µM. Moreover, the GI50 in [7] is 0.0535 µM; in experiment [8], 0.0123 µM; in [9] it was > 4.21 µM; in experiment [10], > 4.47 µM. Also, the TGI is > 10 µM in experiment [1]; 0.0176 µM in [2]; > 10 µM in experiment [3]; > 10 µM in experiment [4]; 0.0246 µM in [5]; 0.171 µM in experiment [6]. The TGI in experiment [7] was > 10 µM; in experiment [8], 0.153 µM; in experiment [9], > 10 µM; in experiment [10], > 10 µM.

As for `Cc1cc([N+](=O)[O-])ccc1NS(=O)(=O)c1cc(Cl)ccc1Cl`, the GI50 in experiment [1] is 2.87 µM; in experiment [2], 2.98 µM; in experiment [3] it was 1.92 µM; in experiment [4], 4.49 µM; in experiment [5] it was 2.54 µM; in experiment [6], 3.18 µM. The GI50 is 2.87 µM in experiment [7], 2.98 µM in experiment [8], 4.28 µM in [9] and 2.51 µM in [10]. Besides, the TGI in experiment [1] was 14.3 µM; in [2], 38.3 µM; in experiment [3], 8.01 µM; in [4], > 100 µM; in experiment [5], > 28.4 µM; in [6] it was > 100 µM. For the same compound, the TGI in [7] was > 100 µM; in experiment [8] it was 18.5 µM; in [9], 18 µM; in [10] it was > 49.4 µM.

With `O=C1c2cc(-c3ccccc3)ccc2-c2c1c1ccc([N+](=O)[O-])cc1c(=O)n2CCCBr`, the GI50 is > 47.4 µM in [1]; 15.1 µM in experiment [2]; > 50 µM in experiment [3]; > 35.4 µM in experiment [4]; > 50 µM in experiment [5]; > 36.3 µM in experiment [6]. The GI50 was > 50 µM in experiment [7], > 26.3 µM in experiment [8], > 50 µM in experiment [9] and > 46.4 µM in experiment [10]. Further, the TGI in experiment [1] was > 50 µM; in [2], > 26.2 µM; in experiment [3], > 50 µM; in experiment [4], > 50 µM; in [5], > 50 µM; in experiment [6], > 50 µM. The TGI in [7] is > 50 µM; in experiment [8], > 43.7 µM; in experiment [9], > 50 µM; in [10], > 50 µM.

Take `COc1cc(F)cc([C@@H](CO)NC(=O)[C@@H](C)N2Cc3ccc(-c4nc(NC5CCOCC5)ncc4Cl)cc3C2=O)c1`: the GI50 in [1] is 1.3 µM; in experiment [2], 12.5 µM; in [3], 5.03 µM; in [4], 14.1 µM; in experiment [5] it was 1.93 µM; in [6], 1.54 µM. Also, the GI50 in experiment [7] was 1.33 µM; in experiment [8] it was 0.205 µM; in experiment [9] it was 0.0125 µM; in experiment [10] it was 9.67 µM. Further, the TGI amounted to 33.2 µM in [1]; 54 µM in experiment [2]; 33 µM in experiment [3]; 99.6 µM in experiment [4]; 69.1 µM in experiment [5]; 99.1 µM in [6]. Further, the TGI in experiment [7] was > 100 µM; in experiment [8], 19.8 µM; in experiment [9], 57.5 µM; in experiment [10], 49.6 µM.

Turning to `C[C@@H](NC(=O)[C@@H](CC(=O)N1CCC(N2CCCCC2)CC1)N1C(=O)[C@@H](N2C(=O)OC[C@@H]2c2ccccc2)[C@H]1/C=C/c1cccc(Cl)c1)c1ccccc1`, the GI50 is 14.8 µM in experiment [1]; 1.71 µM in [2]; 1.9 µM in experiment [3]; 2.31 µM in experiment [4]; 1.89 µM in experiment [5]; 2.31 µM in experiment [6]. The GI50 in experiment [7] is 2.9 µM; in experiment [8] it was 2.15 µM; in experiment [9], 1.99 µM; in experiment [10], 2.04 µM. The TGI in [1] amounted to 31.2 µM; in experiment [2] it was 4.09 µM; in experiment [3] it was 4.33 µM; in [4], 7.21 µM; in experiment [5], 4.17 µM; in experiment [6], 6.22 µM. For the same compound, the TGI in [7] turned out to be 8.85 µM; in experiment [8] it was 3.98 µM; in experiment [9], 4.08 µM; in experiment [10], 5.36 µM.

As to `Clc1cccc(N2CCN(CCN3CCc4c([nH]c5ccccc45)C3c3cccnc3)CC2)c1` (stereo not given), the TGI in [1] was > 62.4 µM; in [2], > 76.4 µM; in experiment [3], > 100 µM; in experiment [4], > 100 µM; in [5] it was > 100 µM; in experiment [6] it was > 100 µM. Further, the TGI was > 92.2 µM in experiment [7], > 100 µM in [8], > 76.9 µM in [9] and > 100 µM in experiment [10].

As to `O=C1NC(=O)C(c2ccc(Cl)cc2)=C1Nc1ccc(Cl)c(C(=O)O)c1`, the GI50 in experiment [1], in experiment [2], in [3], in experiment [4], in experiment [5] and in experiment [6] was > 25 µM each time. Further, the GI50 in experiment [7], in [8], in [9] and in experiment [10] was > 25 µM throughout. In addition, the TGI in experiment [1], in experiment [2], in experiment [3], in [4], in experiment [5] and in experiment [6] was > 25 µM in each case. Besides, the TGI in [7], in [8], in experiment [9] and in [10] was > 25 µM in each case.

Consider `C[n+]1c2ccccc2c(Nc2ccc(NS(=O)(=O)CCCCN=C(N)N)cc2)c2ccc(N)cc21`, for which the GI50 in experiment [1] was 0.128 µM; in experiment [2], 1.48 µM; in experiment [3] it was 0.222 µM; in experiment [4], 2.16 µM; in experiment [5], 10.1 µM; in experiment [6], 2.79 µM. In addition, the GI50 in experiment [7] is 0.0443 µM; in experiment [8], 15.7 µM; in experiment [9] it was 8.97 µM; in experiment [10] it was 0.0429 µM. In addition, the TGI in experiment [1] is 31.2 µM; in [2], > 100 µM; in experiment [3], 13.5 µM; in [4], > 85.5 µM; in experiment [5], > 100 µM; in experiment [6], > 100 µM. Also, the TGI in experiment [7] is > 100 µM; in [8], > 70.8 µM; in experiment [9], > 100 µM; in [10] it was > 81.2 µM.

On to `O=C(/C=C/c1cccc([N+](=O)[O-])c1)c1ccc(O)c(CN2CCN(c3cc4c(cc3F)c(=O)c(C(=O)O)cn4C3CC3)CC2)c1`, for which the GI50 was 3.49 µM in [1]; 1.22 µM in experiment [2]; 1.85 µM in [3]; 2.15 µM in experiment [4]; 1.63 µM in experiment [5]; 1.4 µM in experiment [6]. Moreover, the GI50 was 1.75 µM in experiment [7], 1.51 µM in [8], 1.92 µM in experiment [9] and 0.332 µM in experiment [10]. Moreover, the TGI in [1] turned out to be 15.2 µM; in [2], 2.51 µM; in [3] it was 4.99 µM; in experiment [4], 5.58 µM; in experiment [5], 3.24 µM; in experiment [6] it was 2.7 µM. Moreover, the TGI was determined as 3.45 µM in [7], 2.99 µM in experiment [8], 3.43 µM in experiment [9] and 1.44 µM in [10].

In the case of `O=CC(Br)C(Br)c1ccccc1` (stereo not given), the GI50 was 6.8 µM in experiment [1]; 7.69 µM in experiment [2]; 0.942 µM in experiment [3]; 4.2 µM in [4]; 2.6 µM in experiment [5]; 1.64 µM in experiment [6]. In addition, the GI50 in [7] was 3.06 µM; in [8], 1.82 µM; in experiment [9], 15.1 µM; in [10], 0.478 µM. Further, the TGI in experiment [1] turned out to be 18.7 µM; in experiment [2] it was 20.9 µM; in [3], 3.17 µM; in experiment [4], 16 µM; in [5] it was 6.98 µM; in [6], 3.12 µM. Further, the TGI was found to be 11.4 µM in experiment [7], 3.78 µM in [8], 29.4 µM in [9] and 2.23 µM in experiment [10].

For the compound `CC(=O)OCc1ccc(O)c(C=O)c1`, the TGI in [1], in experiment [2], in experiment [3], in [4], in experiment [5] and in experiment [6] was > 100 µM each time. Besides, the TGI in experiment [7], in experiment [8], in [9] and in experiment [10] was > 100 µM in each case.

Consider `CC(=O)OC1CC[C@@]2(C)C(CC[C@]3(C)C2CC=C2[C@@H]4CC(C)(C)CCC4(C)CCC23C)[C@@]1(C)C(=O)O` (stereo not given in full), for which the TGI was determined as 50.2 µM in experiment [1]; 48.9 µM in [2]; 44.9 µM in [3]; 46.7 µM in experiment [4]; 38.5 µM in experiment [5]; 30.7 µM in [6]. Also, the TGI in experiment [7] came out at 41.3 µM; in experiment [8] it was 36.9 µM; in experiment [9] it was 35.8 µM; in [10], 40.1 µM.

For `c1cncc(-c2nc3ccccc3s2)c1`, the GI50 in experiment [1] is > 100 µM; in experiment [2] it was 58.4 µM; in [3], > 100 µM; in experiment [4], > 100 µM; in [5], > 100 µM; in [6], 95.1 µM. Moreover, the GI50 was > 100 µM in experiment [7], 64.7 µM in experiment [8], > 100 µM in experiment [9] and > 100 µM in experiment [10]. Further, the TGI in experiment [1], in experiment [2], in [3], in experiment [4], in experiment [5] and in [6] was > 100 µM throughout. The TGI in experiment [7], in experiment [8], in experiment [9] and in experiment [10] was > 100 µM throughout.

In the case of `CSc1n(Cc2ccc3ccccc3c2)c(C)c[n+]1Cc1ccc2ccccc2c1`, the GI50 in experiment [1] was 1.31 µM; in experiment [2], 0.342 µM; in experiment [3], 0.408 µM; in experiment [4] it was 0.69 µM; in [5], 1.49 µM; in experiment [6], 1.9 µM. The GI50 is 0.523 µM in [7], 0.938 µM in experiment [8], 0.535 µM in experiment [9] and 0.505 µM in [10]. Also, the TGI in experiment [1] turned out to be 3.18 µM; in experiment [2] it was 1.49 µM; in experiment [3], 2.1 µM; in experiment [4], 2.13 µM; in experiment [5] it was 2.97 µM; in experiment [6], 3.77 µM. Also, the TGI in [7] is 1.87 µM; in experiment [8] it was 2.47 µM; in experiment [9], 1.82 µM; in experiment [10], 1.88 µM.
